Data: US6737383B1, “Herbicidal oxadiazolidines” (priority 1999, dated 2004)

Assays:
giant foxtail = test: Test B pre/postemergence giant foxtail; type: in vivo, Setaria faberii
How it was run: (§1)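 Test chemicals in a non-phytotoxic solvent mixture with surfactant were sprayed preemergence onto planted seeds and postemergence onto plants 2 to 18 cm tall (1- to 4-leaf stage). After twelve to sixteen days in a greenhouse, injury was visually rated against untreated controls from 0 (no effect) to 10 (complete control).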

cocklebur = test: Test B pre/postemergence cocklebur; type: in vivo, Xanthium strumarium
How it was run: as §1

duck salad = test: Test B flood test duck salad; type: in vivo, Heteranthera limosa
How it was run: (§2)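 Plants were grown to the 2-leaf stage before treatment with test chemical, then held in a greenhouse for twelve to sixteen days. Injury was visually rated against untreated controls on a 0–10 scale, where 0 is no effect and 10 is complete control.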

rice = test: Test B flood test rice; type: in vivo, Oryza sativa
How it was run: as §2

crabgrass = test: Test B pre/postemergence crabgrass; type: in vivo, Digitaria sanguinalis
How it was run: as §1

wheat = test: Test B pre/postemergence wheat; type: in vivo, Triticum aestivum; conditions: for Plant response rating, Wheat: scale of 0 to 10 where 0 is no effect and 10 is complete control
How it was run: as §1

surinam grass = test: Test B pre/postemergence surinam grass; type: in vivo, Brachiaria decumbens
How it was run: as §1

blackgrass = test: Test B pre/postemergence blackgrass; type: in vivo, Alopecurus myosuroides
How it was run: as §1

soybean = test: Test B pre/postemergence soybean; type: in vivo, Glycine max; conditions: for Plant response rating, Soybean: scale of 0 to 10 where 0 is no effect and 10 is complete control
How it was run: as §1

pigweed = test: Test B pre/postemergence pigweed; type: in vivo, Amaranthus retroflexus; conditions: for Plant response rating, Redroot pigweed: scale of 0 to 10 where 0 is no effect and 10 is complete control
How it was run: as §1

velvetleaf = test: Test B pre/postemergence velvetleaf; type: in vivo, Abutilon theophrasti; conditions: for Plant response rating, Velvetleaf: scale of 0 to 10 where 0 is no effect and 10 is complete control
How it was run: as §1

sugar beet = test: Test B pre/postemergence sugar beet; type: in vivo, Beta vulgaris; conditions: for Plant response rating, Sugarbeets: scale of 0 to 10 where 0 is no effect and 10 is complete control
How it was run: as §1

corn = test: Test B pre/postemergence corn; type: in vivo, Zea mays
How it was run: as §1

purple nutsedge = test: Test B pre/postemergence purple nutsedge; type: in vivo, Cyperus rotundus
How it was run: as §1

wild oat = test: Test B pre/postemergence wild oat; type: in vivo, Avena fatua; conditions: for Plant response rating, Wild oats: scale of 0 to 10 where 0 is no effect and 10 is complete control
How it was run: as §1

[1] = Postemergence, Rate 250 g/ha, scale 0 to 10
[2] = Postemergence, Rate 500 g/ha, scale of 0 to 10 where 0 is no effect and 10 is complete control
[3] = Preemergence, Rate 62 g/ha, scale of 0 to 10 where 0 is no effect and 10 is complete control
[4] = Preemergence, Rate 125 g/ha, scale of 0 to 10 where 0 is no effect and 10 is complete control
[5] = Preemergence, Rate 250 g/ha, scale 0 to 10, 0 is no effect, 10 is complete control
[6] = Preemergence, Rate 500 g/ha, scale 0 to 10, 0 is no effect, 10 is complete control
[7] = Rate 62 g/ha, Postemergence, scale 0 to 10, 0 no effect, 10 complete control
[8] = Rate 125 g/ha, Postemergence, scale 0 to 10, 0 is no effect, 10 is complete control
[9] = Rate 62 g/ha, flood test species, Pre-emergence, visual evaluation after twelve to sixteen days
[10] = Rate 125 g/ha, under heading Pre-emergence, flood test species, visual evaluation after twelve to sixteen days
[11] = Rate 250 g/ha, Pre-emergence (flood test species), scale 0 to 10, 0 is no effect, 10 is complete control
[12] = Rate 500 g/ha, Pre-emergence, flood test species, scale 0 to 10 (0 no effect, 10 complete control)

CCC=CCn1c(=O)on(C(=O)N(c2ccccc2)C(C)C)c1=O [Compound 454]
Giant foxtail plant response rating (giant foxtail; [1]): 8 | Giant foxtail plant response rating (giant foxtail; [2]): 9 | Plant response rating, Giant foxtail (giant foxtail; [3]): 6 | Plant response rating, Giant foxtail (giant foxtail; [4]): 9 | Giant foxtail plant response rating (giant foxtail; [5]): 10 | Giant foxtail plant response rating (giant foxtail; [6]): 10 | Giant foxtail plant response rating (giant foxtail; [7]): 2 | Giant foxtail plant response rating (giant foxtail; [8]): 2 | Cocklebur plant response rating (cocklebur; [1]): 0 | Cocklebur plant response rating (cocklebur; [2]): 0 | Plant response rating, Cocklebur (cocklebur; [3]): 0 | Plant response rating, Cocklebur (cocklebur; [4]): 0 | Cocklebur plant response rating (cocklebur; [5]): 0 | Cocklebur plant response rating (cocklebur; [6]): 0 | Cocklebur plant response rating (cocklebur; [7]): 0 | Cocklebur plant response rating (cocklebur; [8]): 0 | Plant response rating, Ducksalad (0 to 10 scale, 0 is no effect, 10 is complete control) (duck salad; [9]): 0 | Ducksalad plant response rating (0 to 10 scale, 0 is no effect, 10 is complete control) (duck salad; [10]): 0 | Ducksalad plant response rating (duck salad; [11]): 0 | Ducksalad plant response rating (duck salad; [12]): 0 | Plant response rating, Rice (0 to 10 scale, 0 is no effect, 10 is complete control) (rice; [9]): 0 | Rice plant response rating (0 to 10 scale, 0 is no effect, 10 is complete control) (rice; [10]): 0 | Rice plant response rating (rice; [11]): 0 | Rice plant response rating (rice; [12]): 0 | Crabgrass plant response rating (crabgrass; [1]): 3 | Crabgrass plant response rating (crabgrass; [2]): 9 | Plant response rating, Crabgrass (crabgrass; [3]): 2 | Plant response rating, Crabgrass (crabgrass; [4]): 3 | Crabgrass plant response rating (crabgrass; [5]): 8 | Crabgrass plant response rating (crabgrass; [6]): 9 | Crabgrass plant response rating (crabgrass; [7]): 2 | Wheat plant response rating (wheat; [1]): 0 | Plant response rating, Wheat (wheat; Preemergence, Rate 62 g/ha): 0 | Plant response rating, Wheat (wheat; Preemergence, Rate 125 g/ha): 0 | Wheat plant response rating (wheat; [5]): 0 | Wheat plant response rating (wheat; [6]): 0 | Wheat plant response rating (wheat; [7]): 0 | Wheat plant response rating (wheat; [8]): 0 | B. signalgrass plant response rating (surinam grass; Postemergence, Rate 250 g/ha, scale 0 to 10, 0 no effect, 10 complete control): 0 | B. signalgrass plant response rating (surinam grass; [2]): 2 | Plant response rating, B. signalgrass (surinam grass; [3]): 0 | Plant response rating, B. signalgrass (surinam grass; [4]): 0 | B. signalgrass plant response rating (surinam grass; [5]): 4 | B. signalgrass plant response rating (surinam grass; [6]): 4 | B. signalgrass plant response rating (surinam grass; [7]): 0 | B. signalgrass plant response rating (surinam grass; [8]): 0 | Blackgrass plant response rating (blackgrass; [1]): 2 | Blackgrass plant response rating (blackgrass; [2]): 2 | Plant response rating, Blackgrass (blackgrass; [3]): 0 | Plant response rating, Blackgrass (blackgrass; [4]): 0 | Blackgrass plant response rating (blackgrass; [5]): 2 | Blackgrass plant response rating (blackgrass; [6]): 6 | Blackgrass plant response rating (blackgrass; [7]): 0 | Blackgrass plant response rating (blackgrass; [8]): 0 | Soybean plant response rating (soybean; [1]): 2 | Plant response rating, Soybean (soybean; Preemergence, Rate 62 g/ha): 0 | Plant response rating, Soybean (soybean; Preemergence, Rate 125 g/ha): 0 | Soybean plant response rating (soybean; [5]): 0 | Soybean plant response rating (soybean; [6]): 0 | Soybean plant response rating (soybean; [7]): 1 | Soybean plant response rating (soybean; [8]): 2 | Redroot pigweed plant response rating (pigweed; [1]): 2 | Plant response rating, Redroot pigweed (pigweed; Preemergence, Rate 62 g/ha): 0 | Plant response rating, Redroot pigweed (pigweed; Preemergence, Rate 125 g/ha): 2 | Redroot pigweed plant response rating (pigweed; [5]): 9 | Redroot pigweed plant response rating (pigweed; [6]): 10 | Redroot pigweed plant response rating (pigweed; [7]): 0 | Redroot pigweed plant response rating (pigweed; [8]): 0 | Velvetleaf plant response rating (velvetleaf; [1]): 0 | Plant response rating, Velvetleaf (velvetleaf; Preemergence, Rate 62 g/ha): 0 | Plant response rating, Velvetleaf (velvetleaf; Preemergence, Rate 125 g/ha): 0 | Velvetleaf plant response rating (velvetleaf; [5]): 5 | Velvetleaf plant response rating (velvetleaf; [6]): 6 | Velvetleaf plant response rating (velvetleaf; [7]): 0 | Velvetleaf plant response rating (velvetleaf; [8]): 0 | Sugarbeets plant response rating (sugar beet; [1]): 0 | Plant response rating, Sugarbeets (sugar beet; Preemergence, Rate 62 g/ha): 0 | Plant response rating, Sugarbeets (sugar beet; Preemergence, Rate 125 g/ha): 0 | Sugarbeets plant response rating (sugar beet; [5]): 0 | Sugarbeets plant response rating (sugar beet; [6]): 0 | Sugarbeets plant response rating (sugar beet; [7]): 0 | Sugarbeets plant response rating (sugar beet; [8]): 0 | Corn plant response rating (corn; [1]): 0 | Corn plant response rating (corn; [2]): 0 | Plant response rating, Corn (corn; [3]): 0 | Plant response rating, Corn (corn; [4]): 0 | Corn plant response rating (corn; [5]): 0 | Corn plant response rating (corn; [6]): 3 | Corn plant response rating (corn; [7]): 0 | Corn plant response rating (corn; [8]): 0 | Nutsedge plant response rating (purple nutsedge; [1]): 0 | Plant response rating, Nutsedge (purple nutsedge; [3]): 0 | Nutsedge plant response rating (purple nutsedge; [5]): 0 | Nutsedge plant response rating (purple nutsedge; [6]): 0 | Nutsedge plant response rating (purple nutsedge; [7]): 0 | Nutsedge plant response rating (purple nutsedge; [8]): 0 | Wild oats plant response rating (wild oat; [1]): 0 | Plant response rating, Wild oats (wild oat; Preemergence, Rate 62 g/ha): 0 | Plant response rating, Wild oats (wild oat; Preemergence, Rate 125 g/ha): 0 | Wild oats plant response rating (wild oat; [5]): 0 | Wild oats plant response rating (wild oat; [6]): 2 | Wild oats plant response rating (wild oat; [7]): 0 | Wild oats plant response rating (wild oat; [8]): 0
